According to ChEMBL document CHEMBL1201862, “PubChem BioAssay data set” (2004):
Blank lines part the entries; values can stand above or below the molecule they belong to. Calls of active or inactive are those of the source.

Assays:
Bcl-2-related protein A1 [1] = target: T1, Bcl-2-related protein A1 (Mus musculus, UniProt Q07440); type: functional;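 also: confirmatory dose–response counterscreen on Bfl-1, used to check hits from a UBC13 polyubiquitin inhibitor campaign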
T1 sequence (Q07440 whole entry): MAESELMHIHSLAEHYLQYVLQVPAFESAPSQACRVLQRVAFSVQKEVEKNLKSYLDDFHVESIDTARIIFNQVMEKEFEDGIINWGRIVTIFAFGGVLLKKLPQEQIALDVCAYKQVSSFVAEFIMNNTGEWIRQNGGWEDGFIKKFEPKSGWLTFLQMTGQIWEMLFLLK

[2] = target: T2, Ubiquitin-conjugating enzyme E2 N (Homo sapiens, UniProt P61088); type: functional
T2 sequence (P61088 whole entry): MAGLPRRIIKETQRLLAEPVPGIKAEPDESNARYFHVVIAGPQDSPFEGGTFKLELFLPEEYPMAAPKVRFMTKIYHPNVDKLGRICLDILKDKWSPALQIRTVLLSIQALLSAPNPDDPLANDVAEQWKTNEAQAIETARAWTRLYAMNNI

[3] = target: T2, Ubiquitin-conjugating enzyme E2 N; type: functional; remark: listed apart in the source
[4] = target: T3, Heat shock factor protein 1 (Mus musculus, UniProt P38532); experiment: HSF1 potentiators in luciferase reporter cells, confirmation, cell-based, NIH3T3, luminescence, dose retest (AID 435004); type: functional;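 also: stress induced by proteasome inhibitor MG132 added 30 min after compound; luciferase reporter driven by HSF1 response element in NIH3T3 cells; actives raise luminescence as potentiators of the MG132 stress response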
T3 sequence (P38532 whole entry): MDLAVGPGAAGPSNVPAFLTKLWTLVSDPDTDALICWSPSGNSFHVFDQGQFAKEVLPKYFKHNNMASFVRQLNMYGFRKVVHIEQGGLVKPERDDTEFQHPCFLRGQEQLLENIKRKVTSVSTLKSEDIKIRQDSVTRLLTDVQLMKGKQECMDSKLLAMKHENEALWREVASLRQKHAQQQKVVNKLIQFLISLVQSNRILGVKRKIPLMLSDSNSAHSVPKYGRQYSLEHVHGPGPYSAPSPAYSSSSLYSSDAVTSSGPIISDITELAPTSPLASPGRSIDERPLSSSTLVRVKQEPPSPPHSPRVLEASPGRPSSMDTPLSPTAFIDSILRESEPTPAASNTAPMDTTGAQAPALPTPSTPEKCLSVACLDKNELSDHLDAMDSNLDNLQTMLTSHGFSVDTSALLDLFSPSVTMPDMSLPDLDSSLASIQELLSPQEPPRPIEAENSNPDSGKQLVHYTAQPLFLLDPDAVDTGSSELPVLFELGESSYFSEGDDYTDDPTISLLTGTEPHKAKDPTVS

[5] = target: Eukaryotic translation initiation factor 4E (Mus musculus, UniProt P63073); experiment: eIF4E–eIF4G protein interaction inhibitors, dose response, biochemical, TR-FRET (AID 855); type: functional;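 also: potency for disrupting eIF4E binding to eIF4GI seen as loss of FRET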
Chain of Eukaryotic translation initiation factor 4E (P63073 whole entry): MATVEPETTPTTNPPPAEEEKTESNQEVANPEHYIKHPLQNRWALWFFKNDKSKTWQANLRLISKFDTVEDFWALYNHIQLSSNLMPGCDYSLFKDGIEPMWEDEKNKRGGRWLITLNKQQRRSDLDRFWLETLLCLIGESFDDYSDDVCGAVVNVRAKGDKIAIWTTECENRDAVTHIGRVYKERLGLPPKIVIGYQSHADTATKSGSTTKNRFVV

[6] = target: T4, Calpain-2 catalytic subunit (Sus scrofa, UniProt P43367); experiment: pig calpain II inhibitor potency, dose response, biochemical, fluorogenic peptide substrate (AID 1420); type: functional
T4 sequence (P43367 whole entry): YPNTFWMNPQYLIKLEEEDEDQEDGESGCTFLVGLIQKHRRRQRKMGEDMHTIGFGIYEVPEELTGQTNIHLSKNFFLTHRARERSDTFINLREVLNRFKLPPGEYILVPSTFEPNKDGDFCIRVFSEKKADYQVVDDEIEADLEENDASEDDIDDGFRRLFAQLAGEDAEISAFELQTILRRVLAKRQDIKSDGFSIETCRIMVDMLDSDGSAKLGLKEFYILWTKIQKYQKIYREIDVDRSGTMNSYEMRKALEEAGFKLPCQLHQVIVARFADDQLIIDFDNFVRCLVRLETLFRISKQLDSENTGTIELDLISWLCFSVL

[7] = target: T5, Short transient receptor potential channel 4 (Mus musculus, UniProt Q9QUQ5); experiment: mouse TRPC4 channel inhibitors, dose response, cell-based, HEK293 TRPC4/mu-opioid, Fluo-4 calcium (AID 434942); type: functional;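 also: potency of inhibitors blocking the TRPC4 calcium response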
T5 sequence (Q9QUQ5 whole entry): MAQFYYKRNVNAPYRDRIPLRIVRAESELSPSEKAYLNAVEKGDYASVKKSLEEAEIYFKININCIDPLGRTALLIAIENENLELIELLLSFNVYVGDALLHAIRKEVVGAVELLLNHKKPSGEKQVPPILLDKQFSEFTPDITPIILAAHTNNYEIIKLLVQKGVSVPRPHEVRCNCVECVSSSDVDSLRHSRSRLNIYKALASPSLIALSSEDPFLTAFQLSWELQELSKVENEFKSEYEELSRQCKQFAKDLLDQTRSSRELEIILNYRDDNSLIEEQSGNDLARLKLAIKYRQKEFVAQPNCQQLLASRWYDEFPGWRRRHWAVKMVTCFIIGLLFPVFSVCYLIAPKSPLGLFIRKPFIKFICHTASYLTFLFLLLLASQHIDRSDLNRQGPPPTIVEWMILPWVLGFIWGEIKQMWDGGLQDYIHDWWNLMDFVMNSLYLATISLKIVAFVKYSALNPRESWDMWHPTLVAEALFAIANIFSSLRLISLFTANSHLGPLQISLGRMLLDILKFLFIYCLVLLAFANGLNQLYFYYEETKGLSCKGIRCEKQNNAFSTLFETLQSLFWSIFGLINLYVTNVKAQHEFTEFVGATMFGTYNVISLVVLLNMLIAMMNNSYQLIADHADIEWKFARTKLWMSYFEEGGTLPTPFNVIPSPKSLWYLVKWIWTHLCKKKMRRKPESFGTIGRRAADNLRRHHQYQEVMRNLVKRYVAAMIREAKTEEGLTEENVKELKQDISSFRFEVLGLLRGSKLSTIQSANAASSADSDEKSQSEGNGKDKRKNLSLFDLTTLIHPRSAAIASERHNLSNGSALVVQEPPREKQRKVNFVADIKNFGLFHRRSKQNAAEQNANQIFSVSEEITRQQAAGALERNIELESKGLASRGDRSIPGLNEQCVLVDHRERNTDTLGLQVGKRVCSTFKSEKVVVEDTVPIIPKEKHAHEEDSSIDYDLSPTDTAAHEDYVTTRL

Prothrombin = Prothrombin (Homo sapiens, UniProt P00734); experiment: Thrombin 1536 HTS Dose Response Confirmation. [Related pubchem assays: 1046 (Thrombin 1536 HTS; hits were confirmed in this assay)]; type: functional
[8] = target: Glyceraldehyde-3-phosphate dehydrogenase (Homo sapiens, UniProt P04406)
Chain of Glyceraldehyde-3-phosphate dehydrogenase (P04406 whole entry): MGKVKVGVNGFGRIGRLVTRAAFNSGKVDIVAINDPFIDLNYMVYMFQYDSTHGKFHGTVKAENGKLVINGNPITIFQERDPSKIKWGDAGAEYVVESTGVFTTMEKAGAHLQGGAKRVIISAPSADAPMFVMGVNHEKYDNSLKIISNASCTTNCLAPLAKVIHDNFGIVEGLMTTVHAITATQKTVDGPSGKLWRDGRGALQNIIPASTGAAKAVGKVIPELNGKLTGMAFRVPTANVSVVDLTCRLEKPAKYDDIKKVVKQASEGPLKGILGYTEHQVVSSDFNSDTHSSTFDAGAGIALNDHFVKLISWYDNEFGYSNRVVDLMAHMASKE

Bcl-2-related protein A1 [9] = target: T1, Bcl-2-related protein A1; experiment: Bfl-1 inhibitors blocking BH3 peptide binding, confirmation, biochemical, TR-FRET, mouse Bfl-1 (AID 621);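 also: TR-FRET binding of GST-Bfl-1 to FITC-labelled Bid peptide via terbium antibody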
Bcl-2-related protein A1 [10] = target: T1, Bcl-2-related protein A1; experiment: Bfl-1 binding inhibitors, SAR follow-up, biochemical, fluorescence polarization (AID 1070)
Cytochrome P450 2C9 = Cytochrome P450 2C9 (Homo sapiens, UniProt P11712); conditions: Potency
Chain of Cytochrome P450 2C9 (P11712 whole entry): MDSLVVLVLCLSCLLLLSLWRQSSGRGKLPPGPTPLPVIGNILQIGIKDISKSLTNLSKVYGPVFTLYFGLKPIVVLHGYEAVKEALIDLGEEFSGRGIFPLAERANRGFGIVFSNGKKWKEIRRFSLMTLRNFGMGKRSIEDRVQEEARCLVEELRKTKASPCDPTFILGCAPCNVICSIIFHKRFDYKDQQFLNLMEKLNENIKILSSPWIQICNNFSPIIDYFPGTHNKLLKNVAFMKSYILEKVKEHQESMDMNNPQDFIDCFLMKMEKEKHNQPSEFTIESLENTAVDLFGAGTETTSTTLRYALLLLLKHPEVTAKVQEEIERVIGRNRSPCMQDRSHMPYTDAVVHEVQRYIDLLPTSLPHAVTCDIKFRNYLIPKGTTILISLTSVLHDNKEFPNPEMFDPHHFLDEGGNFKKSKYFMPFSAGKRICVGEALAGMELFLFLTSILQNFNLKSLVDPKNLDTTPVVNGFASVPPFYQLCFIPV

Cytochrome P450 2D6 = Cytochrome P450 2D6 (Homo sapiens, UniProt P10635);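 also: CYP2D6 member of a cytochrome P450 panel assay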
Chain of Cytochrome P450 2D6 (P10635 whole entry): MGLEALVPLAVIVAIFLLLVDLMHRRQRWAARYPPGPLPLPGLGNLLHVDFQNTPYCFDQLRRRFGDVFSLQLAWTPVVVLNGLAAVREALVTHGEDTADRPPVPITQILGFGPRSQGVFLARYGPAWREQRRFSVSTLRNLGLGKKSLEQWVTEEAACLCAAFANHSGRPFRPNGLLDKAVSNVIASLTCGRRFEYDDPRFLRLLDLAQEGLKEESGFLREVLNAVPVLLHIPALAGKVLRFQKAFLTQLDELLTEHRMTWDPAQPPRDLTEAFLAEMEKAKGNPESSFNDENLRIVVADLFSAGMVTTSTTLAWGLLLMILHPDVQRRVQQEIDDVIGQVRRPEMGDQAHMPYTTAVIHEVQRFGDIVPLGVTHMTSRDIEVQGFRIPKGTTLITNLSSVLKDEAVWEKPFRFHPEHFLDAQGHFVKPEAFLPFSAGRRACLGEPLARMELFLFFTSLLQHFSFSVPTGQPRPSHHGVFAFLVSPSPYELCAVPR

Cytochrome P450 3A4 = Cytochrome P450 3A4 (Homo sapiens, UniProt P08684);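 also: CYP3A4 tested as one member of a cytochrome P450 panel screen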
Chain of Cytochrome P450 3A4 (P08684 whole entry): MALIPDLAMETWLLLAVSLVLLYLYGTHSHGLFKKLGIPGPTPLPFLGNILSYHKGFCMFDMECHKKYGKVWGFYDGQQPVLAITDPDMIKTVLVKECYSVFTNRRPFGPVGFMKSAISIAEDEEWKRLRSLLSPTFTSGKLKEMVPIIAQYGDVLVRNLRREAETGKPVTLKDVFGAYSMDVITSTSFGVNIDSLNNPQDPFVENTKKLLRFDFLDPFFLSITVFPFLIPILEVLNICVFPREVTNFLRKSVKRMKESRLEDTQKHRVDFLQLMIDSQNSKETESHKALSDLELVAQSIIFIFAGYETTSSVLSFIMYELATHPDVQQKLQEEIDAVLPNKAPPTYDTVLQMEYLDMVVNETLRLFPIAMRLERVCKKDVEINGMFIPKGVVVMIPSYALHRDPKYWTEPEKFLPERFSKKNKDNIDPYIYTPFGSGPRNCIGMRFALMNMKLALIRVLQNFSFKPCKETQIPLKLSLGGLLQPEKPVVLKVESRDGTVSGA

H9c2 = experiment: cells; type: functional, cell-based; conditions: Rattus norvegicus, H9c2, Myocardium;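 also: confirmatory concentration-response retest of ultra-high-throughput screening hits for modulation of myocardial damage; cell death induced by hydrogen peroxide oxidative stress; compound pretreatment for 60 min then peroxide exposure for 2 h; potency is for protecting the cells against peroxide damage rather than for killing them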

- IC50 (Bcl-2-related protein A1 [1]): > 20 µM (inactive)
- IC50 [2]: 15.6 µM (active)
- IC50 [3]: 18.8 µM (active)
- EC50 [4]: > 260 µM (inactive)
Structure (SMILES): O=C(CSc1cc(Cl)ccc1Cl)NCC(=O)Nc1ccc(F)c(F)c1F

- IC50 [5]: 50 µM (inactive)
Structure (SMILES): O=C(c1ccccc1)N(Nc1ccccc1)c1ccccc1

- IC50 [6]: 11.5 µM (not active)
- EC50 [7]: 2.11 µM (active)
Structure (SMILES): COc1cccc(O)c1CN1CCCC(C(=O)c2cccc(C(F)(F)F)c2)C1 (stereo unspecified)

- IC50 (Prothrombin): > 50 µM (not active)
Structure (SMILES): COc1cccc(CN(C)C(=O)CCc2nnc(-c3ccsc3)o2)c1

Structure (SMILES): O=C1C(Cl)=C(Cl)C(=O)N1c1ccc(C(F)(F)F)cc1
- IC50 [8]: > 100 µM (not active)
- IC50 (Bcl-2-related protein A1 [9]): 1.46 µM (active)
- IC50 (Bcl-2-related protein A1 [10]): 0.999 µM (active)

- AC50 (Cytochrome P450 2C9): 6.31 µM (inconclusive)
Structure (SMILES): CC(C)[C@@H](CC(=O)N[C@@H]1CCCC[C@H]1C(=O)N[C@H](CC(=O)N[C@@H](CCC(=O)O)CC(=O)O)Cc1ccccc1)NC(=O)C[C@H](Cc1ccccc1)NC(=O)[C@@H]1CNCC[C@H]1N

- IC50 (Bcl-2-related protein A1 [1]): > 20 µM (inactive)
- IC50 [2]: 19.3 µM (active)
- IC50 [3]: > 20 µM (inactive)
Structure (SMILES): CNC(=O)c1ccsc1NC(=O)C1CCCN1S(=O)(=O)c1cccs1 (stereo unspecified)

- EC50 [7]: 2.11 µM (active)
- AC50 (Cytochrome P450 2D6): 0.501 µM (inconclusive)
- AC50 (Cytochrome P450 3A4): 15.8 µM (inconclusive)
Structure (SMILES): CC(C)(C)c1cc2cccnc2n1Cc1ccccc1

Structure (SMILES): COc1ccc2nc(O)c(-c3nnn(-c4ccc(F)cc4)n3)cc2c1
- IC50 (Bcl-2-related protein A1 [9]): > 100 µM (not active)
- IC50 (Bcl-2-related protein A1 [10]): > 100 µM (not active)
- IC50 (H9c2): 37.1 µM (inactive)
